Marks after values point to notes of the source that are not given here.
Experiments:
COLO 205 cells = assay: MTS cytotoxicity test with COLO 205 cells; type: cell-based, human; details: 3 days
In short: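 COLO 205 human colon carcinoma cells, 1000 per well, exposed 3 days at 37° C to nine 2-fold dilutions, typical final top concentration 5 μM. MTS absorbance normalized to time-0 plate; IC50 is concentration giving colour yield midway between untreated and fully killed controls.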

MAP-rich tubulin = assay: Tubulin polymerization test with MAP-rich tubulin; type: biochemical, bovine; details: 0.3 μM compound, 20 min, fold enhancement over control
Method: (§1) Medium is RPMI-1640 with L-glutamine, supplemented with 10% heat-inactivated fetal calf serum, 100 units/ml penicillin, and 100 μg/ml streptomycin (Gibco, Grand Island, N.Y.). Microtubule-associated protein (MAP)-rich tubulin, containing about 70% tubulin and 30% MAPs (#ML113), and highly purified tubulin (>99% pure, #TL238), both from bovine brain, are obtained from Cytoskeleton, Inc., Denver, Colo. PEM buffer (80 mM piperazine-N,N′-bis[2-ethanesulfonic acid], pH 6.9, 1 mM ethylene glycol-bis(β-aminoethyl ether)-N,N,N′,N′-tetraacetic acid, 1 mM magnesium chloride) and guanosine 5′-triphosphate (GTP) are also obtained from Cytoskeleton. [3H]paclitaxel, specific activity 14.7 Ci/mmol, is purchased from Moravek Biochemicals (Brea, Calif.). [^3H]vinblastine, specific activity 9.60 Ci/mmol and MicroSpin G-50 columns are obtained from Amersham Biosciences (Piscataway, N.J.). […] Other reagents are obtained from Sigma (St. Louis, Mo.).
(§2) Two variations of this procedure are done, one using MAP-rich tubulin and one using pure tubulin.
MAP-rich tubulin is dissolved in ice-cold PEM buffer containing 1 mM GTP (GPEM buffer) at a concentration of 1.3 mg/mL. The solution is centrifuged at top speed in an Eppendorf model 5415C microcentrifuge (Brinkmann Instruments, Westbury, N.Y.) for 10 min at […] immediately before use. The tubulin solution is added to wells of a ½-area 96-well plate (Costar No. 3696, Corning, Inc., Corning, N.Y.) already containing the compounds of interest. Each compound is tested in duplicate at a final concentration of 0.3 μM in a volume of 110 μL per well. The final DMSO concentration in all wells is 0.3%. Control reactions, which received compound solvent only, are done in quadruplicate. The plate is put in a SpectraMax Plus plate reader (Molecular Devices Corp. Sunnyvale, Calif.) thermostated at 24° and the absorbance of each well at 340 nm, a measure of the appearance of turbidity due to tubulin polymer formation, is determined every minute for 60 minutes. The absorbance at time 0 for each well is subtracted from each of the subsequent absorbance readings for that well, and then the duplicates are averaged.
In this assay, control reactions with MAP-rich tubulin show an S-shaped absorbance profile characterized by three phases: first, a lag phase during which no change in absorbance occurs; second, a polymerization phase in which absorbance increases; and third, a plateau phase in which absorbance has reached a maximum and little or no further change occurs. Polymerization enhancers such as paclitaxel and docetaxel shorten or eliminate the lag phase, increase the rate of the polymerization phase, and often increase the height of the plateau. […] The compounds of this invention have a taxane-like effect on the polymerization reaction. This has been expressed quantitatively in Table 5 by dividing the mean A340 of each sample at 20 min by the mean A340 of the control at 20 min to give a fold enhancement over control. […] Examples of this invention have factors ranging up to 8.1, with the majority in the 5 to 6-fold range.

pure tubulin = assay: Tubulin polymerization test with pure tubulin without GTP; type: biochemical, bovine; details: no GTP
Method: as §1, §2
The procedure with pure tubulin is similar except for the following changes. […] The supernatant after centrifugation is dispensed to a 96-well plate already containing compounds. Each compound is tested in duplicate at six serial 3-fold dilutions starting at 24.3 μM. The plate reader is thermostated at 35°.

tubulin heterodimer [1] = assay: Competitive binding test, [3H]vinblastine; set-up: species or system bovine; details: [3H]vinblastine 100 nM
Method: as §1
(§3) The binding of examples of this invention to highly purified tubulin is studied by competitive inhibition methods. […] To study possible competition at the taxane site, on the other hand, polymerized tubulin (microtubules) is used because paclitaxel binds preferentially to microtubules.
(§4) Highly purified tubulin is dissolved in PEM buffer without GTP and used at a final concentration of 1.0 to 1.3 mg/ml (10 to 13 μM). […] These solutions are incubated at 24° for 1 hr and then applied to MicroSpin G-50 columns which are centrifuged for 2 min at 3000 rpm in an Eppendorf 5415C microfuge. An aliquot of each column effluent (containing tubulin and bound radioligand) is mixed with scintillation fluid and counted in a liquid scintillation spectrometer. […] The ability of the competitor to inhibit the binding of the radioligand is expressed as a percentage of control binding in the absence of any competitor.

tubulin heterodimer [2] = assay: Competitive binding test, [3H]colchicine; set-up: species or system bovine; details: [3H]colchicine 50 nM
Method: as §1, §3, §4

microtubules = assay: Competitive binding test, [3H]paclitaxel; set-up: species or system bovine; details: [3H]paclitaxel 2.1 μM, competitor 20 μM (5 μM for unlabeled paclitaxel)
Method: as §1, §3
For competition with [^3H]paclitaxel, highly purified tubulin is dissolved in PEM buffer containing 0.75 M glutamate and 25 μM dideoxy-GTP; final protein concentration is 0.25 to 0.35 mg/mL (2.5 to 3.5 μM). These conditions foster the rapid formation of short, stable microtubule polymers (Hamel, E., del Campo, A. A., and Lin, C. M. Stability of tubulin polymers formed with dideoxyguanosine nucleotides in the presence and absence of microtubule-associated proteins. J. Biol. Chem., 259: 2501-2508, 1984). This solution is incubated for 30 min at 37° to allow microtubules to form. Then [^3H]paclitaxel (final concentration of 2.1 μM, 1.2 Ci/mmol) and competitor (final concentration of 20 μM, except 5 μM for unlabeled paclitaxel) are added to aliquots of the polymerized tubulin solution and incubation at 37° is continued for another 30 min. […] The reactions are then centrifuged at top speed in an Eppendorf 5415C microfuge for 20 min at room temperature in order to pellet the microtubule protein. Triplicate aliquots of each supernatant are mixed with scintillation fluid and counted in a liquid scintillation spectrometer. From the amount of radioactivity in the supernatants and the measured total starting radioactivity, the amount of [^3H]paclitaxel bound to pelleted microtubule protein is calculated. The ability of each competitor to inhibit radioligand binding to pelleted protein is expressed as a percent of controls without any competitor.

[3] = Water uptake and hydrate stability at relative humidity; type: physicochemical; details: room temperature; for water absorbed: 80-100% relative humidity, about 24 h, forms dihydrate; for stability of dihydrate: 5-100% relative humidity
Method: To a slurry of 5-chloro-6-{2,6-difluoro-4-[3-(methylamino)propoxy]phenyl}-N-[(1S)-2,2,2-trifluoro-1-methylethyl][1,2,4]triazolo[1,5-a]pyrimidin-7-amine hydrochloride (7.50 g, 15.0 mmol) and water (100 mL) is added sodium hydroxide solution (10 N, 2.0 mL, 20 mmol) dropwise. Then, fumaric acid (3.48 g, 30 mmol) is added. The mixture is stirred for about 15-20 min and then heated to about 65-75° C. and stirred until all of the solid dissolves. The solution is filtered and the filtrate is cooled to about 0-5° C. over about 1 h. The mixture is stirred for 1 h and then filtered and the collected solid washed with cold water and isopropanol. The solid is dried under vacuum at about 60° C./10 mmHg for about 20 h to give a white solid (6.54 g, 75%) in anhydrous form. A portion of the compound is placed in a drying dish at 80-100% relative humidity (RH) and room temperature for about 24 h.
A mixture of 5-chloro-6-{2,6-difluoro-4-[3-(methylamino)propoxy]phenyl}-N-[(1S)-2,2,2-trifluoro-1-methylethyl][1,2,4]triazolo[1,5-a]pyrimidin-7-amine (9.00 g, 19.4 mmol) and succinic acid (2.75 g, 23.3 mmol) in water (90 mL) is stirred for about 15-20 min and then heated to about 65-75° C. The solution is filtered and the filtrate is cooled to about 0-5° C. over about 1 h. The mixture is stirred for about 1 h and then filtered and the collected solid washed with cold water (2×9 mL) and cold isopropanol (9 mL). The solid is dried under vacuum at about 40° C./10 mmHg for about 20 h to give a white solid in anhydrous form (6.6 g, 73%). A portion of the compound is placed in a drying dish at 80-100% relative humidity (RH) and room temperature for about 24 h.

[4] = tested on: H157 Human Non-Small Cell Lung Carcinoma; assay: Human tumor xenograft test, H157; type: in vivo, athymic mice; details: for T/C on day 0 / T/C on day 2 / T/C on day 5 / T/C on day 8 / T/C on day 12 / T/C on day 15: days 0, 7
Method: The ability of compounds of this invention to inhibit tumor growth in animals is studied in the athymic mouse xenograft standard pharmacological test. Female nu/nu mice in an outbred albino background are obtained from Charles River Laboratories (Wilmington, Mass.). Animals are injected subcutaneously on the flank with the desired tumor cell suspension. Several days later, mice with tumors of approximately 150 mm^3 are selected from those injected (staged) and randomly distributed into groups of 5-10. The day of staging is called day 0. Compounds of the invention, usually formulated in saline (exceptions are noted in tables), are administered to animals by intravenous injection or oral gavage on various schedules starting on day 0 or 1, as noted in the tables. The control group in each experiment is dosed with vehicle on the same schedule. Tumor size is measured every 3-7 days with calipers in two orthogonal dimensions, and tumor volume is calculated from the formula volume=[(length×width^2)/2].
Tumor/Control (T/C) is obtained by dividing the mean tumor volume of the treated group by the mean tumor volume of the control group on each measurement day. A treatment dose is defined as active if it produced a statistically significant T/C of 0.50 or less. A p value≦0.05, determined by one-side Student's t-test, is required for statistical significance. A treatment dose is defined as toxic if more than 10% of the animals died from a compound-related toxicity.

C[C@H](Nc1c(-c2c(F)cc(OCCCN3CCOCC3)cc2F)c(Cl)nc2ncnn12)C(F)(F)F.Cl [Example 11a, 5-Chloro-6-[2,6-difluoro-4-(3-morpholin-4-ylpropoxy)phenyl]-N-[(1S)-2,2,2-trifluoro-1-methylethyl][1,2,4]triazolo[1,5-a]pyrimidin-7-amine Hydrogen chloride]
IC50 (COLO 205 cells): 51 nM | A340 Compound/A340 Control (MAP-rich tubulin): 6.8 | absorbance increase, polymerization of pure tubulin (pure tubulin; 2.7 μM): no effect | absorbance increase, polymerization of pure tubulin (pure tubulin; 8.1 μM): lower and less rapid increase | A340 at 0 min (pure tubulin; 24.3 μM): 0 | A340 at 5 min (pure tubulin; 24.3 μM): 0.24 | A340 at 10 min (pure tubulin; 24.3 μM): 0.24 | A340 at 15 min (pure tubulin; 24.3 μM): 0.23 | A340 at 20 min (pure tubulin; 24.3 μM): 0.22 | absorbance increase, polymerization of pure tubulin (pure tubulin; 24.3 μM, first 5 min): rapid increase in absorbance | [3H]Vinblastine binding, percent of control without competitor, Mean (tubulin heterodimer [1]): 12% | [3H]Colchicine binding, percent of control without competitor, Mean (tubulin heterodimer [2]): 121% | [3H]Paclitaxel binding, percent of control without competitor, Mean (microtubules): 107%

CNCCCOc1cc(F)c(-c2c(Cl)nc3ncnn3c2N[C@@H](C)C(F)(F)F)c(F)c1.O=C(O)/C=C/C(=O)O [Example 2b, 5-Chloro-6-{2,6-difluoro-4-[3-(methylamino)propoxy]phenyl}-N-[(1S)-2,2,2-trifluoro-1-methylethyl][1,2,4]triazolo[1,5-a]pyrimidin-7-amine Fumarate Salt]
water absorbed [3]: 5.8% | stability of dihydrate [3]: stable at room temperature and at 5-100% relative humidity

CNCCCOc1cc(F)c(-c2c(Cl)nc3ncnn3c2N[C@@H](C)C(F)(F)F)c(F)c1.O=C(O)CCC(=O)O [Example 2c, 5-Chloro-6-{2,6-difluoro-4-[3-(methylamino)propoxy]phenyl}-N-[(1S)-2,2,2-trifluoro-1-methylethyl][1,2,4]triazolo[1,5-a]pyrimidin-7-amine Succinate Salt]
IC50 (COLO 205 cells; Succinate Salt): 38 nM | T/C on day 0 ([4]; H157, 10 mg/kg IV): 1.07 | T/C on day 2 ([4]; H157, 10 mg/kg IV): 1.09 | T/C on day 5 ([4]; H157, 10 mg/kg IV): 1.00 | T/C on day 8 ([4]; H157, 10 mg/kg IV): 0.96 | T/C on day 12 ([4]; H157, 10 mg/kg IV): 0.49* | T/C on day 15 ([4]; H157, 10 mg/kg IV): 0.38* | T/C on day 0 ([4]; H157, 20 mg/kg IV): 0.98 | T/C on day 2 ([4]; H157, 20 mg/kg IV): 0.96 | T/C on day 5 ([4]; H157, 20 mg/kg IV): 0.50** | T/C on day 8 ([4]; H157, 20 mg/kg IV): 0.51* | T/C on day 12 ([4]; H157, 20 mg/kg IV): 0.44* | T/C on day 15 ([4]; H157, 20 mg/kg IV): 0.24** | tumor growth inhibition (activity call) ([4]; H157 NSCLC, 20 and 10 mg/kg intravenously on days 0 and 7): active | water absorbed [3]: 5.8% | stability of dihydrate [3]: stable at room temperature and at 5-100% relative humidity
